In article PMC10859961, “Ir(III) Half-Sandwich Photosensitizers with a π-Expansive Ligand for Efficient Anticancer Photodynamic Therapy” (Journal of Medicinal Chemistry, 2024):
Read-outs that look alike come from different tables or passages of the source.

Legend:
A549 cells [1] = test: Intracellular ROS production (CM-H2DCFDA, flow cytometry); assay type: cell-based, human; conditions: for elevation of ROS levels (median fluorescence): 10 nM, 4 h then blue light 1 h, vs untreated control; for increase in cellular ROS content: complexes at IC50,dark, 5 h, no irradiation
Experimental: A549 cells were seeded onto 24-well plates (5 × 10^4 cells/well) 24 h before the experiment. The cells were incubated for 4 h with complexes 2, 4, 6, and 8 at 10 nM and then photoactivated or kept in the dark for an additional hour. In addition, the cells were treated for 5 h with the complexes at the corresponding IC50,dark without irradiation. The cells exposed for 30 min to 0.5 μM FeCl2 and 0.04% H2O2, as ROS inducers, were used as positive control. After the treatments, the cells were washed with PBS and harvested by trypsinization. Intracellular ROS were detected by incubation with the chloromethyl 2′,7′-dichlorodihydrofluorescein diacetate (CM-H2DCFDA; Invitrogen) probe at 2.5 μM for 30 min at 37 °C. After washing with PBS, the median fluorescence of 1 × 10^4 cells was measured with a NovoCyte flow cytometer (Agilent Technologies) equipped with the NovoExpress software. The fold increase versus control untreated cells was determined for each treatment in three independent experiments.

1BR.3.G = test: CyQUANT cell viability assay, dark or blue light; assay type: cell-based, human; conditions: for IC50: 48 h; for PI (IC50,dark/IC50,light): blue light 460 nm
Experimental: (§1) Cells were cultured in 96-well plates at a density of 3000 (A549), 2500 (HeLa), or 5000 (PC-3, 1BR.3.G, and MRC-5) cells per well in cell culture medium and allowed to attach for 24 h. Solutions of the complexes at different concentrations were prepared for cell treatments. In all cases, the solid compounds were weighed using an analytical balance (Mettler Toledo AX205DR) to ensure precise measurements. Subsequently, 5 mM solutions were prepared using DMSO. Solutions were then diluted in water to reach a concentration of 1 mM and then, aliquots were taken and diluted in culture medium to obtain solutions ranging from 0 to 50 μM. […] The cells were treated with these solutions in dark conditions or following the photoactivation protocol (see below). 48 h later the treatments were removed, and cells were washed with phosphate-buffered saline (PBS).
(§2) Initially, the effect of the complexes on the cell viability was determined by the 3-(4,5-dimethylthiazol-2-yl)-2,5-diphenyltetrazolium bromide (MTT) assay.[147] The cells were incubated for 2 h with 100 μL of culture medium together with 10 μL of MTT (Sigma-Aldrich) at 0.5 mg/mL. After discarding the medium, DMSO was added to each well to dissolve the purple formazan crystals. The absorbance of each well was determined on a Multiscan Plate Reader (Synergy 4, Biotek, Winooski) at a wavelength of 570 nm. Cell viability was also assessed using the CyQUANT Direct Cell Proliferation Assay (Thermo Fisher Scientific), following the manufacturer’s instructions. Briefly, after the treatments, the cells were washed with PBS, and an equal volume of culture medium and CyQUANT mix was added to each well. The plates were then incubated for 1 h at 37 °C. Subsequently, the fluorescence intensity was bottom read using a Multiscan Plate Reader (Synergy 4, Biotek, Winooski) with excitation and emission filters of 485 and 528 nm, respectively. In both assays, at least three replicates were measured for each treatment. The concentration that reduces the cell viability by 50% (IC50) was established using the Gen5 software (BioTek). Three independent experiments were carried out for each compound. […] The phototoxicity index (PI = IC50,dark/IC50,light) was determined.
(§3) To assess the photodynamic activity of the complexes, cells were incubated with the complexes for 4 h to enable their intracellular accumulation. The cells were then irradiated with light with a wavelength of 460 nm (blue), 530 nm (green), or 655 nm (red) for 1 h using a LED system (LuxLight) with an effective power of 6.7 mW cm^–2, which provides a total light dose of 24.1 J cm^–2. The LED system was positioned at 25 mm from the cell culture plates.

MRC-5 = test: CyQUANT cell viability assay, dark or blue light; assay type: cell-based, human; conditions: for PI (IC50,dark/IC50,light): MRC-5, blue light 460 nm; for IC50: 48 h
Experimental: as §1, §2, §3

A549 cells [2] = test: Superoxide anion production (ROS-ID Superoxide Detection Kit); assay type: cell-based, human; conditions: 10 nM, photoactivated with blue light
Experimental: The types of ROS generated by the treatments were also investigated. Superoxide anion (O2^•–) production was monitored using the ROS-ID Superoxide Detection Kit (Enzo Life Sciences), which contains a cell-permeable probe that selectively emits orange fluorescence upon reacting with O2^•–. Following the treatments, cells were harvested and incubated with the probe for 30 min at 37 °C. Fluorescence emission from 1 × 10^4 cells was measured by flow cytometry (Ex/Em: 550/620 nm) and compared to that of control untreated cells. In addition, hydrogen peroxide (H2O2) generation was measured using the Hydrogen Peroxide Assay Kit (Cell-based) (Abcam). […] After 1 h of incubation at 37 °C, the median fluorescence of 1 × 10^4 cells was determined by flow cytometry (Ex/Em = 490/520 nm) and compared to that of control cells. All experiments were conducted in triplicate.

A549 cells [3] = test: Mitochondrial membrane potential (JC-1, flow cytometry); assay type: cell-based, human; conditions: 10 nM, blue light 1 h
Experimental: A549 cells were seeded onto 24-well plates. 24 h later, cells were incubated for 4 h with complexes 2, 4, 6, and 8 at 10 nM and then photoactivated or kept in the dark for an additional hour. Next, the cells were washed with PBS and harvested by trypsinization. Mitochondrial membrane potential changes were immediately measured by the JC-1 (5,5′,6,6′-tetrachloro-1,1′,3,3′-tetraethylbenzimidazolocarbo-cyanine iodide) Mitochondrial Membrane Potential Detection Kit (Biotium), according to the manufacturer’s instructions. As positive control, the cells were coincubated with CCCP (Sigma) at 5 μM for 30 min to disrupt the mitochondrial membrane potential. For each treatment, the fluorescence of 1 × 10^4 cells was analyzed by a Novocyte flow cytometer. JC-1 red aggregates were detected at a wavelength of 590 nm (FL2) and JC-1 green monomers at 529 nm (FL1).

[4] = Lipophilicity by the shake flask method; assay type: physicochemical; conditions: 1-octanol/water; for logD9.2: carbonate–bicarbonate buffer pH 9.2
Experimental: The partition coefficients of complexes 5, 6, 7, and 8 were determined by the standard “shake flask” method.[37],[84],[85] Octanol-saturated water (OSW) and water-saturated octanol (WSO) were prepared using analytical grade 1-octanol and ultrapure water. The complexes were dissolved in WSO and molar extinction coefficient was determined. Then, 2 mL of 25 μg/mL complex in WSO was shaken with 2 mL of OSW at 1500 rpm for 6 h at room temperature. To separate the phases, centrifugation was done at 4000 rpm for 10 min. The absorbance of WSO phase before and after shaking was measured. The absorbance of WSO before mixing minus the absorbance of WSO after mixing corresponds to the absorbance of the complex in OSW. The distribution coefficients (log Do/w) of the complexes were obtained from the ratio of the complexes present in 1-octanol and the aqueous phase (eq 3). Each experiment was repeated three times. To avoid protonation in complexes 5 and 6, a carbonate–bicarbonate buffer at pH 9.2 in OSW was used. [drawing 24] 3 where A1-oct corresponds to the absorbance of WSO phase and Atotal is the actual concentration of the WSO before shaking.

[5] = 1BR.3.G nonmalignant fibroblasts, dark, read-out: IC50,dark
[6] = 1BR.3.G, blue light 460 nm 1 h (24.1 J cm^–2), read-out: IC50,light
[7] = MRC-5, blue light 460 nm 1 h (24.1 J cm^–2), read-out: IC50,light
[8] = MRC-5 nonmalignant lung fibroblasts, dark, read-out: IC50,dark

SMILES	elevation of ROS levels (median fluorescence) (A549 cells [1]) [fold]	increase in cellular ROS content (A549 cells [1]) [fold]	IC50 (1BR.3.G; [5]) [nM]	PI (IC50,dark/IC50,light) (1BR.3.G; 1BR.3.G)	IC50 (1BR.3.G; [6]) [nM]	PI (IC50,dark/IC50,light) (MRC-5)	IC50 (MRC-5; [7]) [nM]	IC50 (MRC-5; [8]) [nM]	superoxide anion (O2•–) increase in mean fluorescence (A549 cells [2]) [fold]	cells with red fluorescence (JC-1 aggregates), upper right quadrant (A549 cells [3]) [%]	logD9.2 [4]	logP [4]
Cc1c(C)c(C)[c-](C)c1C.F[B-](F)(F)F.c1ccc2cc3nc4c5ccc[n+]6c5c5[c](cccc5c4nc3cc2c1)[Ir]6[n+]1cc[nH]c1 [complex 4, [(η^5-C5Me5)Ir(Im)(pbpn)]BF4]	2.2	2.8	2000 ± 400	2451	0.8 ± 0.4	790	3.1 ± 1	2480 ± 200	2.4	34.3	–	–
Cc1c(C)c(C)[c-](C)c1C.F[B-](F)(F)F.c1ccc2nc3c4ccc[n+]5c4c4[c](cccc4c3nc2c1)[Ir]5[n+]1ccn(CCN2CCCCC2)c1 [complex 5, [(η^5-C5Me5)Ir(Imepip)(pbpz)]BF4]	–	–	–	–	–	–	–	–	–	–	1.10 ± 0.10	–
Cc1c(C)c(C)[c-](C)c1C.F[B-](F)(F)F.c1ccc2cc3nc4c5ccc[n+]6c5c5[c](cccc5c4nc3cc2c1)[Ir]6[n+]1ccn(CCN2CCCCC2)c1 [complex 6, [(η^5-C5Me5) Ir(Imepip)(pbpn)]BF4]	2.4	2.6	570 ± 60	644	0.9 ± 0.3	929	0.8 ± 0.2	700 ± 80	2.8	16.9	1.39 ± 0.07	–
Cc1c(C)c(C)[c-](C)c1C.F[B-](F)(F)F.c1ccc(Cn2cc[n+]([Ir]3[c]4cccc5c6nc7ccccc7nc6c6ccc[n+]3c6c45)c2)cc1 [complex 7, [(η^5-C5Me5)Ir(bzIm)(pbpz)]BF4]	–	–	–	–	–	–	–	–	–	–	–	1.65 ± 0.16
Cc1c(C)c(C)[c-](C)c1C.F[B-](F)(F)F.c1ccc(Cn2cc[n+]([Ir]3[c]4cccc5c6nc7cc8ccccc8cc7nc6c6ccc[n+]3c6c45)c2)cc1 [complex 8, [(η^5-C5Me5)Ir(bzIm)(pbpn)]BF4]	5.6	1.7	500 ± 40	942	0.5 ± 0.2	863	0.8 ± 0.1	680 ± 100	2.6	6.6	–	1.13 ± 0.03
